From patent US12623942B2, “Method for extracting salts and temperature- regenerated extracting composition” (ADIONICS, priority 2016, dated 2026)
≈ marks a conversion by molar mass, not a printed value. One block for each compound: values may come before it.

Legend:
Solubility in water = format: physicochemical
Excerpt: The hydrophoby or the solubility in water of a compound may be measured by standard methods and, especially, by UV/visible spectroscopy.

[1] = Liquid-liquid extraction of mono-salt saline solution; conditions: for Extraction rate at room temperature (RT), BaCl2 / Extraction rate at room temperature (RT), CaCl2 / Extraction rate at room temperature (RT), KCl / Extraction rate at room temperature (RT), LiCl / Extraction rate at room temperature (RT), MgCl2 / Extraction rate at room temperature (RT), NaCl / Extraction rate at room temperature (RT), SrCl2: 0.1M CEM + 3.52M ASM2 in CH2Cl2, initial salt 0.1 mol/L, Org./Water = 1, molar %
Excerpt: The extracting composition is obtained by solubilizing an amount of CEM and ASM in the selected fluidizing agent, dichloromethane CH2Cl2, dichlorobenzene or dichlorotoluene or any other fluidizing agent able to well solubilize the mixture CEM/ASM in order to obtain the searched final concentrations after solubilizing CEMs and ASMs in a minimum of 3 milliliters of fluidizing agent. If the selected fluidizing agent is also an ASM compound, so the selected ASM volume is at least 3 milliliters. The given concentrations of ASM2 and ASM9 are related to the added fluidizing agent volume and the concentrations of CEM are related to the added fluidizing agent+ASM volume. The extracting organic composition is then lightly heated so as to promote the solubilization of the organic compounds by means of a heat gun (temperature around 50 to 60° C.) for a few seconds (10 to 30 seconds) until a clear solution is obtained. The composition is thus left for 24 hours at room temperature so as to make sure that the obtained formulation is stable.
These sealed formulations are then orbitally stirred at 500 revolutions/minute for two hours after adding an equivalent volume of water which was distilled twice so as to allow a water saturation of the whole formulation and a pH control at the inlet and at the outlet (pH close to 7, or at least maintained after contact with the saturation water).
3 mL of the prepared extracting organic composition are then taken from the lower phase of the decanted diphasic mixture and transferred to a vial containing 3 mL of the water containing the one or more considered chloride salts (NaCl or others), then the vial is sealed and orbitally stirred (at 500 revolutions per minute) for 2 hours at room temperature (RT), that is to say between 20 and 25° C.
A verification is made to make sure that droplets in the range of 1-2 mm are really present during these stirrings in order to be sure that an equilibrium in the distribution of the considered chloride salt (NaCl or other) is achieved between both liquid phases at the end of stirring. The aspect of the organic and aqueous phases is clear and colorless or slightly turbid.
Once the 2-hour stirring is carried out, the stirring is stopped and the whole is left for decantation for about 10 minutes, at least until both phases are completely separated, at the temperature of the assay. Then, the upper aqueous phase is taken then stirred and diluted in order to analyze its salinity by a ion chromatography (a Metrohm™ device including a cation analyzing column and an anion analyzing column suitable for the ions and for the concentration of the salts which are searched for). Likewise, the chloride salt (NaCl or other) initial aqueous solution is also analyzed by this ion chromatography to determine its cation and chloride molar relative concentration before the extraction. All the extractions and analyses were duplicated.
The considered extracting composition comprises 0.1 mol/L of CEM1 and 3.52 mol/L of ASM2 in dichloromethane CH2Cl2, which was obtained as described above. The initial concentration of the considered salt in water, whether it is LiCl, NaCl, KCl, MgCl2, CaCl2, SrCl2 or BaCl2, is 0.1 mol/L.
After carrying out these 7 specific extractions (duplicated) of salts, the amounts of extracted cations in relative molar percentage before and after extraction at room temperature and at water/extracting formulation iso-volume are indicated in table I: […]

[2] = Complexing constant Log K in methanol at 25° C.; format: binding
Experimental: K is the complexing constant of a CEM and a […] cation in methanol, at 25° C., which is measured according to the standard method of isothermal calorimetric titration.

[3] = mono-salt solutions, 0.1M CEM + 3.52M ASM2 in CH2Cl2, RT

- Solubility in water (Solubility in water): 32000 µM (≈ 5640 µg/mL)
Structure (SMILES): OCc1cccc(C(F)(F)F)c1 [ASM1, 3-(trifluoromethyl)benzyl alcohol]

- Solubility in water (Solubility in water): 2290 µM (≈ 559 µg/mL)
Structure (SMILES): OCc1cc(C(F)(F)F)cc(C(F)(F)F)c1 [ASM2, [3,5-Bis(Trifluoromethyl)phenyl]methanol]

Structure (SMILES): OCc1cc(C(F)(F)C(F)(F)C(F)(F)C(F)(F)F)cc(C(F)(F)C(F)(F)C(F)(F)C(F)(F)F)c1 [ASM3]
- Solubility in water (Solubility in water): 0.5 µM (≈ 0.272 µg/mL)

- Solubility in water (Solubility in water): 390 µM (≈ 122 µg/mL)
Structure (SMILES): OCc1cc(C(F)(F)F)c(C(F)(F)F)c(C(F)(F)F)c1 [ASM4]

Structure (SMILES): CC(O)c1cccc(C(F)(F)C(F)(F)C(F)(F)F)c1 (stereo not shown) [ASM5]
- Solubility in water (Solubility in water): 420 µM (≈ 122 µg/mL)

- Solubility in water (Solubility in water): 480 µM (≈ 137 µg/mL)
Structure (SMILES): CCCC(O)c1cc(C(F)(F)F)cc(C(F)(F)F)c1 (stereo not shown) [ASM7]

- Solubility in water (Solubility in water): 70 µM (≈ 22.4 µg/mL)
Structure (SMILES): OC(c1cccc(C(F)(F)F)c1)c1cccc(C(F)(F)F)c1 [ASM8]

- Log K(Cs^+, MeOH, 25° C.) [2]: 2.7
- Log K(K^+, MeOH, 25° C.) [2]: 2.4
- Log K(Li^+, MeOH, 25° C.) [2]: 2.6
- Log K(Na^+, MeOH, 25° C.) [2]: 5.0
- Log K(Rb^+, MeOH, 25° C.) [2]: 3.1
Structure (SMILES): CCOC(=O)COc1c2cc(C(C)(C)C)cc1Cc1cc(C(C)(C)C)cc(c1OCC(=O)OCC)Cc1cc(C(C)(C)C)cc(c1OCC(=O)OCC)Cc1cc(C(C)(C)C)cc(c1OCC(=O)OCC)C2 [CEM10, 4-tert-Butylcalix[4]arene-tetraacetic acid tetraethyl ester]
- Extraction rate at room temperature (RT), BaCl2 [1]: 3.7%
- Extraction rate at room temperature (RT), CaCl2 [1]: 4.7%
- Extraction rate at room temperature (RT), KCl [1]: 14.4%
- Extraction rate at room temperature (RT), LiCl [1]: 5.5%
- Extraction rate at room temperature (RT), MgCl2 [1]: 5.1%
- Extraction rate at room temperature (RT), NaCl [1]: 66.2%
- Extraction rate at room temperature (RT), SrCl2 [1]: 5.9%
- Na/Ca selectivity [1, 3]: 14

Structure (SMILES): CCOC(=O)COc1c2cc(C(C)(C)C)cc1Cc1cc(C(C)(C)C)cc(c1OCC(=O)OCC)Cc1cc(C(C)(C)C)cc(c1OCC(=O)OCC)Cc1cc(C(C)(C)C)cc(c1OCC(=O)OCC)Cc1cc(C(C)(C)C)cc(c1OCC(=O)OCC)Cc1cc(C(C)(C)C)cc(c1OCC(=O)OCC)C2 [CEM12, 4-tert-Butylcalix[6]arene-hexaacetic acid hexaethyl ester]
- Extraction rate at room temperature (RT), BaCl2 [1]: 11.8%
- Extraction rate at room temperature (RT), CaCl2 [1]: 5.5%
- Extraction rate at room temperature (RT), KCl [1]: 55.7%
- Extraction rate at room temperature (RT), LiCl [1]: 9.0%
- Extraction rate at room temperature (RT), MgCl2 [1]: 5.4%
- Extraction rate at room temperature (RT), NaCl [1]: 29.6%
- Extraction rate at room temperature (RT), SrCl2 [1]: 4.6%
- K/Ca selectivity [1, 3]: 10.2

- Log K(Ba^++, MeOH, 25° C.) [2]: 6.8
- Log K(Ca^++, MeOH, 25° C.) [2]: 7.8
- Log K(Cs^+, MeOH, 25° C.) [2]: 1.0
- Log K(K^+, MeOH, 25° C.) [2]: 5.4
- Log K(Li^+, MeOH, 25° C.) [2]: 3.0
- Log K(Mg^++, MeOH, 25° C.) [2]: 1.2
- Log K(Na^+, MeOH, 25° C.) [2]: 7.2
- Log K(Rb^+, MeOH, 25° C.) [2]: 3.0
- Log K(Sr^++, MeOH, 25° C.) [2]: 8.1
Structure (SMILES): CC(C)(C)c1cc2c(OCC(=O)N3CCCC3)c(c1)Cc1cc(C(C)(C)C)cc(c1OCC(=O)N1CCCC1)Cc1cc(C(C)(C)C)cc(c1OCC(=O)N1CCCC1)Cc1cc(C(C)(C)C)cc(c1OCC(=O)N1CCCC1)C2 [CEM 4, 4-tert-butyl-Calix[4]arene tetrakis(N-pyrrolidinylacetamide)]

Structure (SMILES): CCN(CC)C(=O)COc1c2cc(C(C)(C)C)cc1Cc1cc(C(C)(C)C)cc(c1OCC(=O)N(CC)CC)Cc1cc(C(C)(C)C)cc(c1OCC(=O)N(CC)CC)Cc1cc(C(C)(C)C)cc(c1OCC(=O)N(CC)CC)Cc1cc(C(C)(C)C)cc(c1OCC(=O)N(CC)CC)Cc1cc(C(C)(C)C)cc(c1OCC(=O)N(CC)CC)Cc1cc(C(C)(C)C)cc(c1OCC(=O)N(CC)CC)Cc1cc(C(C)(C)C)cc(c1OCC(=O)N(CC)CC)C2 [CEM 9, 4-tert-butyl-Calix[8]arene octakis(N,N-diethylacetamide)]
- Log K(Ca^++, MeOH, 25° C.) [2]: 7.2

- Log K(Cs^+, MeOH, 25° C.) [2]: 5.5
- Log K(K^+, MeOH, 25° C.) [2]: 5.3
- Log K(Li^+, MeOH, 25° C.) [2]: 1.0
- Log K(Na^+, MeOH, 25° C.) [2]: 4.4
- Log K(Rb^+, MeOH, 25° C.) [2]: 5.6
Structure (SMILES): CCOC(=O)COc1c2cc(C(C)(C)C)cc1Cc1cc(C(C)(C)C)cc(c1OCC(=O)OCC)Cc1cc(C(C)(C)C)cc(c1OCC(=O)OCC)Cc1cc(C(C)(C)C)cc(c1OCC(=O)OCC)Cc1cc(C(C)(C)C)cc(c1OCC(=O)OCC)C2 [CEM 11, 4-tert-Butylcalix[5]arene-pentaacetic acid pentaethyl ester]
